US10251854B2, “S-(carboxymethyl)-cysteine pharmaceutical compound and preparation method and use thereof” (Guangzhou Baiyunshan Pharmaceutical Holdings Co., Ltd. …, priority 2013, dated 2019)

How the values were obtained:
Assay type in all cases: in vivo
Conditions in all cases: x ± SD
rat COPD model [1] = assay: Rat COPD model: inflammation indexes (TNF-α, IL-8, IL-6)
Procedure: (§1) 1.1 Preparation of Rat COPD Models
(§2) A method of establishing a rat COPD model by fumigation plus endotoxin lipopolysaccharide (LPS) endotracheal drop, which is commonly used at home and abroad at present was adopted. The period is 3 months (90 days). Specific method: on the 1st, the 15th, the 29th, the 43rd, the 57th, the 71st and the 85th days of the test, the rats were anesthetized with ethylether, the roots of tongues of the rats were pulled out, and LPS (200 ug/200 ul) was dripped through tracheas by bend gavage needle heads. The rats of the normal group were dripped with physiological saline of equal amount by the same method, and weren't fumigated. The rats of the other five groups were fumigated in a self-made fumigation bin. One side of the fumigation bin was externally connected with a negative pressure pump, and the top thereof was connected with a port for inserting cigarettes. With the negative press pump turned on, the cigarettes were lit, and the smoke of the cigarettes was absorbed into the fumigation bin. In order to prevent the animals from death caused by anoxia, 12 cigarettes were lit every time, and the lid of the fumigation bin was opened 20 min after fumigation for letting in fresh air. The operation was performed 1 h/3 times/day, with the LPS (200 ug/200 ul) being dripped through the tracheas by bend gavage needle heads.
(§3) 1.2 Pharmacological Intervention
(§4) The test was 90 days long. The pharmacological intervention was started from the 15th day, the rats of the positive group were perfused with carbocisteine, the rats of the low, medium and high test groups were perfused with different doses of test medicines, and the rats of the model group and the normal group were perfused with physiological saline of equal amount.
(§5) 1.3 Indexes Determination
(§6) Blood was taken from the orbit of each rat on the second day after the test was over, serum was separated, a complete stomach was cut and washed, lung tissue was preserved, the stomach and the right upper lung were left for pathobiology test, after the rest of the lung was subjected to lung tissue homogenate, the indexes of oxidization and antioxidation, the contents of lipid peroxide (LPO), malondialdehyde (MDA) and reduced glutathione (GSH), the activity of superoxide dismutase (SOD) and the concentration of inflammatory medium TNF-α, IL-8 and IL-6 were detected.

rat COPD model [2] = assay: Rat COPD model: oxidization indexes (LPO, MDA)
Procedure: as §1, §2, §3, §4, §5, §6

rat COPD model [3] = assay: Rat COPD model: antioxidation indexes (GSH, SOD)
Procedure: as §1, §2, §3, §4, §5, §6

S-(carboxymethyl)-D-cysteine arginine salt monohydrate [D-arginine]
IL-6 Lung tissue (rat COPD model [1]; high dose group): 13.69 ± 4.33 pg/mL
IL-6 Serum (rat COPD model [1]; high dose group): 8.70 ± 2.35 pg/mL
IL-8 Lung tissue (rat COPD model [1]; high dose group): 10.82 ± 2.59 pg/mL
IL-8 Serum (rat COPD model [1]; high dose group): 7.74 ± 1.28 pg/mL
TNF-α Lung tissue (rat COPD model [1]; high dose group): 24.40 ± 6.09 pg/mL
TNF-α Serum (rat COPD model [1]; high dose group): 19.73 ± 6.08 g* pg/mL
IL-6 Lung tissue (rat COPD model [1]; low dose group): 17.03 ± 7.27 pg/mL
IL-6 Serum (rat COPD model [1]; low dose group): 11.07 ± 2.60 pg/mL
IL-8 Lung tissue (rat COPD model [1]; low dose group): 12.69 ± 2.33 pg/mL
IL-8 Serum (rat COPD model [1]; low dose group): 9.70 ± 1.35 pg/mL
TNF-α Lung tissue (rat COPD model [1]; low dose group): 30.10 ± 9.44 pg/mL
TNF-α Serum (rat COPD model [1]; low dose group): 23.12 ± 4.20 pg/mL
IL-6 Lung tissue (rat COPD model [1]; medium dose group): 15.44 ± 5.64 pg/mL
IL-6 Serum (rat COPD model [1]; medium dose group): 10.38 ± 3.54 pg/mL
IL-8 Lung tissue (rat COPD model [1]; medium dose group): 12.01 ± 2.11 pg/mL
IL-8 Serum (rat COPD model [1]; medium dose group): 8.26 ± 2.67 pg/mL
TNF-α Lung tissue (rat COPD model [1]; medium dose group): 28.28 ± 13.57 pg/mL
TNF-α Serum (rat COPD model [1]; medium dose group): 20.09 ± 5.10 pg/mL
LPO Lung tissue (rat COPD model [2]; high dose group): 18.74 ± 3.47 nmol/mL
LPO Serum (rat COPD model [2]; high dose group): 5.26 ± 0.88 nmol/mL
MDA Lung tissue (rat COPD model [2]; high dose group): 4.58 ± 0.66 µmol/mL
LPO Lung tissue (rat COPD model [2]; low dose group): 21.98 ± 2.16 nmol/mL
LPO Serum (rat COPD model [2]; low dose group): 6.32 ± 1.34 nmol/mL
MDA Lung tissue (rat COPD model [2]; low dose group): 5.21 ± 0.72 µmol/mL
MDA Serum (rat COPD model [2]; low dose group): 8.66 ± 2.20 µmol/mL
LPO Lung tissue (rat COPD model [2]; medium dose group): 20.62 ± 3.65 nmol/mL
LPO Serum (rat COPD model [2]; medium dose group): 5.80 ± 1.07 nmol/mL
MDA Lung tissue (rat COPD model [2]; medium dose group): 5.01 ± 0.41 µmol/mL
GSH Lung tissue (rat COPD model [3]; high dose group): 114.54 ± 20.57 µmol/L
GSH Serum (rat COPD model [3]; high dose group): 144.17 ± 27.40 µmol/L
SOD Lung tissue (rat COPD model [3]; high dose group): 62.24 ± 16.47 U/mL
SOD Serum (rat COPD model [3]; high dose group): 92.32 ± 20.65 U/mL
GSH Lung tissue (rat COPD model [3]; low dose group): 92.23 ± 13.38 µmol/L
SOD Lung tissue (rat COPD model [3]; low dose group): 46.86 ± 19.25 U/mL
SOD Serum (rat COPD model [3]; low dose group): 74.53 ± 8.70 U/mL
GSH Lung tissue (rat COPD model [3]; medium dose group): 107.77 ± 18.26 µmol/L
SOD Lung tissue (rat COPD model [3]; medium dose group): 54.4 ± 12.18 U/mL
SOD Serum (rat COPD model [3]; medium dose group): 83.74 ± 15.27 U/mL

S-(carboxymethyl)-L-cysteine arginine salt monohydrate [L-arginine]
IL-6 Lung tissue (rat COPD model [1]; high dose group): 12.77 ± 4.65 pg/mL
IL-6 Serum (rat COPD model [1]; high dose group): 6.69 ± 1.92 pg/mL
IL-8 Lung tissue (rat COPD model [1]; high dose group): 9.09 ± 1.89 pg/mL
IL-8 Serum (rat COPD model [1]; high dose group): 6.24 ± 1.89 pg/mL
TNF-α Lung tissue (rat COPD model [1]; high dose group): 20.36 ± 7.41 pg/mL
TNF-α Serum (rat COPD model [1]; high dose group): 15.7 ± 5.16 pg/mL
IL-6 Lung tissue (rat COPD model [1]; low dose group): 15.80 ± 6.02 pg/mL
IL-6 Serum (rat COPD model [1]; low dose group): 9.17 ± 3.08 pg/mL
IL-8 Lung tissue (rat COPD model [1]; low dose group): 11.88 ± 303 pg/mL
IL-8 Serum (rat COPD model [1]; low dose group): 8.56 ± 2.33 pg/mL
TNF-α Lung tissue (rat COPD model [1]; low dose group): 26.17 ± 8.33 pg/mL
TNF-α Serum (rat COPD model [1]; low dose group): 20.22 ± 4.77 pg/mL
IL-6 Lung tissue (rat COPD model [1]; medium dose group): 14.22 ± 5.13 pg/mL
IL-6 Serum (rat COPD model [1]; medium dose group): 7.66 ± 2.83 pg/mL
IL-8 Lung tissue (rat COPD model [1]; medium dose group): 9.98 ± 2.43 pg/mL
IL-8 Serum (rat COPD model [1]; medium dose group): 7.39 ± 2.02 pg/mL
TNF-α Lung tissue (rat COPD model [1]; medium dose group): 23.65 ± 11.21 pg/mL
TNF-α Serum (rat COPD model [1]; medium dose group): 18.6 ± 3.89 pg/mL
LPO Lung tissue (rat COPD model [2]; high dose group): 16.09 ± 3.22 nmol/mL
LPO Serum (rat COPD model [2]; high dose group): 4.25 ± 0.99 nmol/mL
MDA Lung tissue (rat COPD model [2]; high dose group): 3.96 ± 0.57 µmol/mL
MDA Serum (rat COPD model [2]; high dose group): 6.79 ± 1.83 µmol/mL
LPO Lung tissue (rat COPD model [2]; low dose group): 19.66 ± 3.90 nmol/mL
LPO Serum (rat COPD model [2]; low dose group): 5.78 ± 1.65 nmol/mL
MDA Lung tissue (rat COPD model [2]; low dose group): 4.77 ± 0.72 µmol/mL
MDA Serum (rat COPD model [2]; low dose group): 8.02 ± 1.54 µmol/mL
LPO Lung tissue (rat COPD model [2]; medium dose group): 17.78 ± 2.98 nmol/mL
LPO Serum (rat COPD model [2]; medium dose group): 4.87 ± 1.90 nmol/mL
MDA Lung tissue (rat COPD model [2]; medium dose group): 4.40 ± 0.60 µmol/mL
MDA Serum (rat COPD model [2]; medium dose group): 7.34 ± 2.44 µmol/mL
GSH Lung tissue (rat COPD model [3]; high dose group): 128.45 ± 24.09 µmol/L
SOD Lung tissue (rat COPD model [3]; high dose group): 72.36 ± 14.55 U/mL
SOD Serum (rat COPD model [3]; high dose group): 116.34 ± 27.86 U/mL
GSH Lung tissue (rat COPD model [3]; low dose group): 102.45 ± 18.97 µmol/L
GSH Serum (rat COPD model [3]; low dose group): 134.21 ± 26.45 µmol/L
SOD Lung tissue (rat COPD model [3]; low dose group): 55.67 ± 13.29 U/mL
SOD Serum (rat COPD model [3]; low dose group): 82.67 ± 19.45 U/mL
GSH Lung tissue (rat COPD model [3]; medium dose group): 116.22 ± 22.73 µmol/L
GSH Serum (rat COPD model [3]; medium dose group): 159.33 ± 30.20 µmol/L
SOD Lung tissue (rat COPD model [3]; medium dose group): 65.44 ± 17.33 U/mL
SOD Serum (rat COPD model [3]; medium dose group): 93.20 ± 20.77 U/mL

N.N.N[C@H](CSCC(=O)O)C(=O)O.O [D-ammonium, S-(carboxymethyl)-D-cysteine ammonium salt monohydrate]
IL-6 Lung tissue (rat COPD model [1]; high dose group): 13.83 ± 6.19 pg/mL
IL-6 Serum (rat COPD model [1]; high dose group): 7.93 ± 3.10 pg/mL
IL-8 Lung tissue (rat COPD model [1]; high dose group): 11.44 ± 1.64 pg/mL
IL-8 Serum (rat COPD model [1]; high dose group): 7.38 ± 1.54 pg/mL
TNF-α Lung tissue (rat COPD model [1]; high dose group): 21.33 ± 8.57 pg/mL
TNF-α Serum (rat COPD model [1]; high dose group): 17.19 ± 4.05 pg/mL
IL-6 Lung tissue (rat COPD model [1]; low dose group): 16.36 ± 4.78 pg/mL
IL-6 Serum (rat COPD model [1]; low dose group): 10.76 ± 2.90 pg/mL
IL-8 Lung tissue (rat COPD model [1]; low dose group): 13.09 ± 2.98 pg/mL
IL-8 Serum (rat COPD model [1]; low dose group): 8.56 ± 2.79 pg/mL
TNF-α Lung tissue (rat COPD model [1]; low dose group): 28.26 ± 12.06 pg/mL
TNF-α Serum (rat COPD model [1]; low dose group): 21.12 ± 4.11 pg/mL
IL-6 Lung tissue (rat COPD model [1]; medium dose group): 15.61 ± 4.40 pg/mL
IL-6 Serum (rat COPD model [1]; medium dose group): 9.09 ± 3.23 pg/mL
IL-8 Lung tissue (rat COPD model [1]; medium dose group): 11.90 ± 1.77 pg/mL
IL-8 Serum (rat COPD model [1]; medium dose group): 8.05 ± 1.72 pg/mL
TNF-α Lung tissue (rat COPD model [1]; medium dose group): 25.02 ± 10.89 pg/mL
TNF-α Serum (rat COPD model [1]; medium dose group): 19.86 ± 3.58 pg/mL
LPO Lung tissue (rat COPD model [2]; high dose group): 17.33 ± 4.07 nmol/mL
LPO Serum (rat COPD model [2]; high dose group): 4.97 ± 1.74 nmol/mL
MDA Lung tissue (rat COPD model [2]; high dose group): 4.35 ± 0.63 µmol/mL
MDA Serum (rat COPD model [2]; high dose group): 7.05 ± 1.59 µmol/mL
LPO Lung tissue (rat COPD model [2]; low dose group): 20.35 ± 3.70 nmol/mL
LPO Serum (rat COPD model [2]; low dose group): 6.07 ± 1.55 nmol/mL
MDA Lung tissue (rat COPD model [2]; low dose group): 5.12 ± 1.11 µmol/mL
MDA Serum (rat COPD model [2]; low dose group): 8.28 ± 2.09 µmol/mL
LPO Lung tissue (rat COPD model [2]; medium dose group): 18.38 ± 2.86 nmol/mL
LPO Serum (rat COPD model [2]; medium dose group): 5.20 ± 0.96 nmol/mL
MDA Lung tissue (rat COPD model [2]; medium dose group): 4.90 ± 0.43 µmol/mL
MDA Serum (rat COPD model [2]; medium dose group): 7.75 ± 1.93 µmol/mL
GSH Lung tissue (rat COPD model [3]; high dose group): 120.13 ± 25.76 µmol/L
GSH Serum (rat COPD model [3]; high dose group): 158.76 ± 29.50 µmol/L
SOD Lung tissue (rat COPD model [3]; high dose group): 70.51 ± 20.90 U/mL
SOD Serum (rat COPD model [3]; high dose group): 98.28 ± 19.15 U/mL
GSH Lung tissue (rat COPD model [3]; low dose group): 94.54 ± 17.50 µmol/L
GSH Serum (rat COPD model [3]; low dose group): 120.16 ± 17.05 µmol/L
SOD Lung tissue (rat COPD model [3]; low dose group): 52.17 ± 16.44 U/mL
SOD Serum (rat COPD model [3]; low dose group): 72.30 ± 12.66 U/mL
GSH Lung tissue (rat COPD model [3]; medium dose group): 109.68 ± 24.63 µmol/L
GSH Serum (rat COPD model [3]; medium dose group): 131.33 ± 24.17 µmol/L
SOD Lung tissue (rat COPD model [3]; medium dose group): 60.31 ± 14.12 U/mL
SOD Serum (rat COPD model [3]; medium dose group): 88.85 ± 17.47 U/mL
